Assay results: patent publication EP3412661A1, “COCRYSTALS OF VORTIOXETINE HYDROBROMIDE AND RESORCINOL” (Enantia, S.L., priority 2017, dated 2018)
≈ marks a conversion by molar mass, not a printed value. Structures can show the parent of a compound that is named as a salt. Blank lines part the entries; values can stand above or below the molecule they belong to.

Experiments:
[1] = cited from earlier work
[2] = according to WO2007/144005A1 / US9562024B2; hydrobromide; cited from earlier work
[3] = cited from earlier work; remark: listed apart in the source
[4] = Stability test under accelerated stability conditions (ICH), crystalline phase checked by XRPD; type: physicochemical; conditions: 40 °C / 75±5% RH
Experimental: The samples were analyzed by XRPD to observe if the crystalline phase was stable (see Table 2).

[5] = Comparative kinetic solubility study in water at room temperature (HPLC vortioxetine peak area, pH and XRPD of filtered solid); conditions: for Analysis 1 XRPD / Analysis 2 XRPD / Analysis 1 pH / Analysis 2 pH: Form β study; for Analysis 1 XRPD / Analysis 2 XRPD: filtered solid; for Analysis 1 pH / Analysis 2 pH: mother liquor
Experimental: A comparative kinetic solubility study of the cocrystal of vortioxetine·HBr and resorcinol 2:1 Form I and with vortioxetine·HBr Form β was performed in water at room temperature (RT). The relative solubility of vortioxetine was obtained by comparison of the vortioxetine peak area in the HPLC analyses of the mother liquors.
The solubility tests were performed in a minireactor HME-R, provided with a 250 mL vessel, a temperature sensor and mechanical stirring.
1 g of each material was stirred in water (150 ml, […]) at 350 rpm. Aliquots of ca. 5 ml of suspension were filtered in a sintered glass funnel (#4) at different times: 30, 60, 180 min and 24 h. After filtration, the pH of the mother liquor was determined. 1 mL of mother liquor was measured with a pipette and diluted to 10 mL with water in a volumetric flask. A portion of this solution was filtered again through a 0.20 µm nylon filter and directly analyzed by HPLC (2 injections for each sample). The filtered solids were analyzed by XRPD, without a drying step, to determine the crystalline phase corresponding to the measured solubility.
The HPLC conditions were the following:
The kinetic solubility of cocrystal vortioxetine hydrobromide and resorcinol Form I and vortioxetine·HBr Form β at room temperature in water was determined in duplicate.

[6] = compared with vortioxetine hydrobromide Form β (example 140 of US9562024B2); cited from earlier work
[7] = water, room temperature, 30 min
[8] = water, room temperature, 60 min
[9] = water, room temperature, 180 min

Compound: Cc1ccc(Sc2ccccc2N2CCNCC2)c(C)c1 [Form α of vortioxetine hydrobromide, vortioxetine hydrobromide]
solubilities in water ([1]; Examples 4b and 4d of WO2007/144005A1, listed as vortioxetine hydrobromide Form α, hydrobromide): 2 mg/mL
stability [2]: unstable and is transformed to the Form β of vortioxetine hydrobromide at room temperature

Compound: Cc1ccc(Sc2ccccc2N2CCNCC2)c(C)c1 [Form γ of vortioxetine hydrobromide, vortioxetine hydrobromide]
hygroscopicity ([3]; under low-humidity conditions): 2.0%
stability [2]: very unstable

Compound: Cc1ccc(Sc2ccccc2N2CCNCC2)c(C)c1 [Vortioxetine, 1-[2-(2,4-dimethyl-phenylsulfanyl)-phenyl]piperazine]
solubility in water ([1]; 25 °C): 7.8 µg/mL (≈ 26.1 µM)

XRPD ([4]; 7 days): stable
XRPD ([4]; 14 days): stable
XRPD ([4]; 21 days): stable
XRPD ([4]; 28 days, hydrobromide): stable
XRPD ([4]; 28 days, listed as Vortioxetine•HBr Form β, hydrobromide): remained stable
maximum of solubility afforded after [5]: three hours
spring and parachute effect [5]: not seen
Analysis 1 Average Form β (Vortioxetine area) ([5]; 30 min): 564
Analysis 2 Average Form β (Vortioxetine area) ([5]; 30 min): 427
Average Vortioxetine area ([5]; 30 min): 495
Analysis 1 Average Form β (Vortioxetine area) ([5]; 60 min): 550
Analysis 2 Average Form β (Vortioxetine area) ([5]; 60 min): 537
Average Vortioxetine area ([5]; 60 min): 544
Analysis 1 Average Form β (Vortioxetine area) ([5]; 180 min): 579
Analysis 2 Average Form β (Vortioxetine area) ([5]; 180 min): 561
Average Vortioxetine area ([5]; 180 min): 570
Analysis 1 Average Form β (Vortioxetine area) ([5]; 24 h): 572
Analysis 2 Average Form β (Vortioxetine area) ([5]; 24 h): 581
Average Vortioxetine area ([5]; 24 h): 576
Analysis 1 XRPD [5, 7]: Form β
Analysis 2 XRPD [5, 7]: Form β
Analysis 1 XRPD [5, 8]: Form β
Analysis 2 XRPD [5, 8]: Form β
Analysis 1 XRPD [5, 9]: Form β
Analysis 2 XRPD [5, 9]: Form β
Analysis 1 XRPD ([5]; water, room temperature, 24 h): Form β
Analysis 2 XRPD ([5]; water, room temperature, 24 h): Form β
Analysis 1 pH [5, 7]: 4.9
Analysis 2 pH [5, 7]: 5.3
Analysis 1 pH [5, 8]: 4.8
Analysis 2 pH [5, 8]: 5.1
Analysis 1 pH [5, 9]: 4.8
Analysis 2 pH [5, 9]: 5.1
Analysis 1 pH ([5]; water, room temperature, 24 h): 5.6
Analysis 2 pH ([5]; water, room temperature, 24 h): 5.5
crystalline form after 24 hours in water dispersion ([5]; water, room temperature, 24 hours, XRPD): unchanged
pH ([5]; water, room temperature, remaining constant over the study): 4-5
Compound: Cc1ccc(Sc2ccccc2N2CCNCC2)c(C)c1 [Vortioxetine·HBr Form β, vortioxetine hydrobromide]

XRPD ([4]; 7 days): stable
XRPD ([4]; 14 days): stable
XRPD ([4]; 21 days): stable
XRPD ([4]; 28 days): stable
XRPD ([4]; 28 days, listed as cocrystal of vortioxetine hydrobromide and resorcinol Form I): remained stable
XRPD ([4]; 28 days, listed as cocrystal of vortioxetine·HBr and resorcinol Form I): remained stable
Compound: Br.Br.Cc1ccc(Sc2ccccc2N2CCNCC2)c(C)c1.Cc1ccc(Sc2ccccc2N2CCNCC2)c(C)c1.Oc1cccc(O)c1 [cocrystal Form I, cocrystal of vortioxetine hydrobromide and resorcinol]

Compound: Cc1ccc(Sc2ccccc2N2CCNCC2)c(C)c1 [ethyl acetate solvate of vortioxetine hydrobromide]
stability [2]: unstable

Compound: Cc1ccc(Sc2ccccc2N2CCNCC2)c(C)c1 [hemihydrate of vortioxetine hydrobromide, vortioxetine hydrobromide]
hygroscopicity (in words) ([3]; according to WO2007/144005A1 / US9562024B2): hygroscopic
stability [2]: unstable

Compound: Cc1ccc(Sc2ccccc2N2CCNCC2)c(C)c1 [vortioxetine hemihydrobromide]
kinetic solubility [6]: much lower
